Source: patent publication US20050238672A1, “Antifungal drug delivery” (priority 2004, published 2005)

Assays:
[1] = test system: T. rubrum, T. mentagrophytes; assay: clinical study, topical application, onychomycosis; format: in vivo, human; details: after discontinuation of therapy
Source text: A total of 10 patients, identified clinically and mycologically (T. rubrum, T. mentagrophytes) were all mycologically cured. Within two weeks of applications all patients with intractable, longstanding (of up to 15 years or more) moccasin distribution fungal dermatomycosis were clinically and mycologically cured. After 2 months of application all patients with severe onychomycosis, also of very long standing duration, appeared mycologically cured (negative cultures). […] Some nails continued to display dystrophic changes commensurate with the slow rate of nail growth and replacement. This persistent and possible prophylactic response is attributed to the unique solubility characteristics of the compounds in question and to the ability of the selected solvents to deliver the drug to the subungual or keratin rich regions where the fungi accumulate, and to persist at such sites in a microcrystalline form after precipitation.
Compositions according to the present invention can be applied by conventional methods, including the use of a small brush with a nail-lacquer bottle, a roll-on applicator, or by a squeeze bottle with a small opening. In the results cited above, a small brush with a nail-lacquer bottle was used.

[2] = solubility of terbinafine in benzyl alcohol; format: physicochemical; details: room temperature, with stirring
Procedure: In a preferred embodiment, the antifungal agent, terbinafine (an allylamine compound) used to treat infections of the nails and of the sub and peri-plantar regions of the foot (moccasin distribution) is dissolved in benzyl alcohol at room temperature with the aid of stirring. […] Two grams of terbinafine are therefore dissolved in 5 ml of benzyl alcohol. To this solution 85 ml of ethyl alcohol anhydrous and 10ml of distilled water are added. The final concentration of the active compound terbinafine, is 2% and that of the preferred carrier, benzyl alcohol 5%.

CN(C/C=C/C#CC(C)(C)C)Cc1cccc2ccccc12 [terbinafine]
recurrence upon discontinuation of therapy [1]: lack of any recurrence
solubility in benzyl alcohol [2]: greater than 40 % w/vol
